These results are taken from the supplement of paper PMC8967900.

Holding throughout (assay): selective drug sensitivity score (sDSS, relative to normal bone marrow) (sDSS (score)); higher = more potent and effective on the cell line relative to normal bone marrow cells
Holding throughout (settings): 72 h

Experiment [1] relates to COG-LL-355h.
For experiment [2], the system named is HPB-ALL.
Experiment [3] relates to NALM-16.
The test system of experiment [4] is CCRF-HSB2.
The test system of experiment [5] is KASUMI-2.
In experiment [6] the test system is NALM-6.
The subject of experiment [7] is REH.
Experiment [8] concerns TMD5.
Experiment [9] concerns PF-382.
Experiment [10] has as its system ALL-SIL.
Experiment [11] relates to P30-OHKUBO.
Experiment [12] concerns CCRF-CEM.
Experiment [13] relates to 697.
Experiment [14] relates to MOLT-14.
The subject of experiment [15] is COG-LL-319h.
For experiment [16], the system named is MHH-CALL-3.
Experiment [17] deals with MN-60.
In experiment [18] the test system is MHH-CALL-2.
Experiment [19] deals with RPMI-8402.
The subject of experiment [20] is MOLT-16.
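Note: ALL cell lines in 384-well plates, five doses spanning 10,000-fold, each plate scaled between vehicle and 100 µmol/L benzalkonium chloride controls, sDSS an adapted area-under-curve metric.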

Turning to `COc1cc([C@@H]2c3cc4c(cc3[C@@H](O[C@@H]3O[C@@H]5CO[C@@H](c6cccs6)O[C@H]5[C@H](O)[C@H]3O)[C@H]3COC(=O)[C@H]23)OCO4)cc(OC)c1O` [Teniposide] (top concentration 10000 nM), the “selective drug sensitivity score” value in experiment [1] was 0; in [2] it was 0; in experiment [3], 0; in experiment [4], 0; in [5], 2.4; in experiment [6], 0. Further, the “selective drug sensitivity score” value in experiment [7], in experiment [8], in experiment [9], in [10], in [11] and in experiment [12] was 0 in each case. Besides, the “selective drug sensitivity score” value in experiment [13], in experiment [14], in [15], in experiment [16], in experiment [17] and in [18] was 0 throughout. Besides, the “selective drug sensitivity score” value in [19] and in experiment [20] was 0 each time.

Consider `Nc1nc(F)nc2c1ncn2[C@@H]1O[C@H](CO)[C@@H](O)[C@@H]1O` [Fludarabine] (top concentration 10000 nM), for which the “selective drug sensitivity score” value in experiment [1] was 5.1; in [2], 0.3; in experiment [3] it was -6; in [4] it was 1.5; in [5], 5.3; in [6], 4.6. Further, the “selective drug sensitivity score” value in [7] was -1.3; in [8], -10.6; in [9], -6.6; in experiment [10], 3; in [11], 7.7; in experiment [12], 2.3. Also, the “selective drug sensitivity score” value in [13] is 7.3; in experiment [14], 4.3; in experiment [15] it was 8.4; in [16], 7.5; in experiment [17] it was -4.5; in [18], 8. Also, the “selective drug sensitivity score” value is -3.6 in [19] and 2.6 in [20].

For `CCn1c(-c2nonc2N)nc2cnc(Oc3cccc(NC(=O)c4ccc(OCCN5CCOCC5)cc4)c3)cc21` (top concentration 10000 nM), the “selective drug sensitivity score” value in experiment [1] is -2.34; in [2] it was -1.14; in experiment [3] it was -5.44; in experiment [4], 13.6; in experiment [5], 14.3; in experiment [6] it was 6.76. Also, the “selective drug sensitivity score” value in [7] came to 4.56; in experiment [8] it was 6.36; in [9] it was 1.66; in [10] it was 4.06; in experiment [11], 10.9; in experiment [12], 15.8. The “selective drug sensitivity score” value was 18.3 in experiment [13]; 2.46 in experiment [14]; 17.5 in experiment [15]; -2.34 in experiment [16]; -3.54 in [17]; 8.36 in experiment [18]. Moreover, the entries for the “selective drug sensitivity score” value in experiment [19] and in experiment [20] were 7.66 and 12.1, respectively.

On to `CC(C)(C#N)c1cc(Cn2cncn2)cc(C(C)(C)C#N)c1` [Anastrozole] (top concentration 10000 nM), for which the “selective drug sensitivity score” value in [1] was found to be 0; in experiment [2], 0.2; in [3], 0; in experiment [4], 0; in experiment [5] it was 0; in [6] it was 0. Also, the “selective drug sensitivity score” value in experiment [7] worked out at 0; in experiment [8] it was 0.6; in [9] it was 0; in experiment [10], 0; in [11], 0; in [12], 0. Moreover, the “selective drug sensitivity score” value in experiment [13], in [14], in experiment [15], in experiment [16], in [17] and in experiment [18] was 0 in each case. The “selective drug sensitivity score” value in [19] and in experiment [20] was 0 in each case.

Regarding `O=C(O)C(=O)O.[NH-][C@@H]1CCCC[C@H]1[NH-].[Pt+2]` [Oxaliplatin] (top concentration 100000 nM), the “selective drug sensitivity score” value was 4.92 in experiment [1]; -0.78 in experiment [2]; -1.48 in [3]; 15 in experiment [4]; 12.8 in experiment [5]; 6.12 in experiment [6]. The “selective drug sensitivity score” value in experiment [7] is 10; in experiment [8], -0.08; in experiment [9], -0.28; in experiment [10] it was 3.42; in experiment [11] it was 14.1; in [12], 8.22. The “selective drug sensitivity score” value in experiment [13] was 16; in experiment [14], 9.22; in [15] it was 15.6; in experiment [16], 10.3; in [17], -0.38; in [18] it was 13.9. Further, the “selective drug sensitivity score” value in experiment [19] was determined as 8.02; in experiment [20], 17.1.

Consider `Oc1nc(-c2ccc(C(F)(F)F)cc2)nc2c1CSCC2` [XAV939] (top concentration 10000 nM), for which the “selective drug sensitivity score” value in experiment [1] was 0.46; in experiment [2], -0.14; in experiment [3], -0.14; in [4], 0.36; in experiment [5], 1.46; in experiment [6], -0.14. In addition, the “selective drug sensitivity score” value in experiment [7] was -0.04; in [8], -0.14; in experiment [9], -0.14; in experiment [10], -0.14; in experiment [11] it was -0.14; in [12], -0.14. Besides, the “selective drug sensitivity score” value in experiment [13] was -0.14; in experiment [14] it was -0.14; in experiment [15], -0.14; in experiment [16], -0.14; in experiment [17] it was -0.14; in [18] it was 0.26. For the same compound, the “selective drug sensitivity score” value in [19] and in experiment [20] was -0.14 throughout.

Consider `Nc1ccn([C@@H]2O[C@H](CO)[C@@H](O)[C@@H]2O)c(=O)n1` [Cytarabine] (top concentration 10000 nM), for which the “selective drug sensitivity score” value in experiment [1] was 4.9; in experiment [2] it was 2.7; in experiment [3] it was 8.8; in [4] it was 28.7; in [5], 16.6; in experiment [6] it was 25.2. The “selective drug sensitivity score” value in experiment [7] was 21.8; in experiment [8], -10; in [9] it was 19.1; in experiment [10], 15.1; in experiment [11] it was 26.2; in [12], 25.7. For the same compound, the “selective drug sensitivity score” value was 27.7 in [13]; 25.6 in experiment [14]; 18.8 in experiment [15]; 15.8 in [16]; 1.3 in experiment [17]; 19.6 in experiment [18]. The entries for the “selective drug sensitivity score” value in experiment [19] and in [20] were 18.6 and 22.5, respectively.
